Laboratory results reported in ChEMBL document CHEMBL2094269, “WEHI/Eskitis Trypanosoma b. brucei screening data”.

Tested on: Trypanosoma brucei brucei
Assay: microbe, parasite or virus in culture
Assay type: functional, organism-based, STIB 795
Details: Trypanosoma brucei, STIB 795
Description: DNDI: Inhibition of Human African Trypanosomiasis (HAT), STIB 795, in vitro

IC50, > 10.4 µM:
CCOc1cc2c(cc1OCC)C(c1ccccc1)N(c1ccccc1)C(=O)C2 (stereo not drawn)
COC(=O)c1cc(NC(=O)Nc2ccc3snnc3c2)cc(C(=O)OC)c1
CCn1cc(C(=O)N(C)c2ccccc2F)c2cc(OC)c(OC)cc2c1=O
O=C(O)CSc1cc(NS(=O)(=O)c2ccccc2)c2ccccc2c1O
CC[n+]1c(/C=C2\Sc3ccccc3N2CCC(=O)O)sc2ccccc21
CSc1ccc(/C=C2\CN(C)C/C(=C\c3ccc(SC)cc3)C2=O)cc1
COc1ccccc1NC(=S)N/N=C/c1cccn1Cc1ccccc1F
CSC1C(c2ccc(F)cc2)=NN(C(=O)Nc2ccc(C#N)cc2)C1(C)C (stereo not drawn)
COc1ccc(CN2CCc3nc(N4CCC(C)CC4)ncc3C2)c(OC)c1
CN(C)c1ccc(N=c2cc(-c3ccccc3)sc(-c3ccccc3)c2)cc1
C/C(=N/OC(=O)c1ccc(Cn2nc(C)c(Cl)c2C)cc1)c1ccccn1
O=C(CCCOc1ccc(Cl)cc1Cl)N/N=C/c1ccc(O)cc1O
COc1ccc(CC(=O)Nc2sc3c(c2C#N)CC(C)(C)NC3(C)C)cc1
CCOC(=O)c1cnc2c(CC)cccc2c1NC1CC(C)(C)NC(C)(C)C1
COc1cc(NC(=O)Nc2ccc(-c3noc(C)n3)cc2)cc(OC)c1OC
CCN(CC)S(=O)(=O)c1cccc(N/N=C2\C=CC(=O)c3cccnc32)c1
CCOC(=O)c1ccc(NC(=O)NC23CC4(C)CC(C)(CC(C)(C4)C2)C3)cc1
Cn1ccnc1-c1c(-c2ccc(Cl)cc2)nc(-c2ccc(Cl)cc2)n1O
CCC(=C\C1=[N+](C)c2ccccc2C1(C)C)/C=C1/N(C)c2ccccc2C1(C)C
CN(C)CCNC(=O)c1ccc2c(c1)NC(=O)/C(=C/c1ccccc1Cl)O2
CCCN1CCN(c2ncc3c(n2)CCN(Cc2ccccc2Cl)C3)CC1
CC(=O)N(C)c1ccc(/N=C2/C(=O)Nc3cc(Br)c(C)cc32)cc1
CC(C)N1C/C(=C\c2cccc(Cl)c2)C(=O)/C(=C/c2cccc(Cl)c2)C1
O=C(CC1(O)C(=O)Nc2ccc(Br)cc21)c1ccc(Cl)s1 (stereo not drawn)
Cc1ccc(C(CNC(=O)c2ccc(Br)cc2)N2CCCC2)cc1 (stereo not drawn)
CCOC(=O)c1ccc(Nc2ncnc3c2cnn3-c2ccc(C)cc2C)cc1
CCOC(=O)c1nc(Nc2cc(Cl)c(OC)cc2OC)c2ccccc2n1
COc1ccc(Nc2nc(N3CCN(C)CC3)nc3c2cnn3C)cc1Cl
O=C(CCn1nnc2ccccc21)N/N=C/c1cc(Br)ccc1O
CC1CCN(C(=S)NC(=O)c2ccccc2I)CC1
CCn1c2ccccc2c2cc(CNCCc3ccc(OC)c(OC)c3)ccc21
CSc1ccc(C2N=C(c3ccc(C)cc3)CC(c3ccccc3O)N2)cc1 (stereo not drawn)
Cc1ccc(S(=O)(=O)C(CC(=O)c2ccco2)c2ccc(Cl)cc2)cc1 (stereo not drawn)
CCN(CC)c1cc(C)c2cc(NC(=O)/C=C/c3ccc(OC)cc3)ccc2n1
CCCCOc1cccc(-c2cc(C(=O)N/N=C(\C)CC)c3ccccc3n2)c1
CCCC(=O)c1ccc(N2CCN(C(=O)c3c(F)cccc3F)CC2)c(F)c1
Cc1ccc(N2CC(C(=O)NCc3nnnn3-c3ccccc3)CC2=O)cc1C (stereo not drawn)
CC(/C=N/NC(=O)c1cc(-c2ccc(OC(C)C)cc2)n[nH]1)=C\c1ccccc1
